Tests used:
[1] = Side effects on dosing subject patients with aplindore; type: in vivo, human; conditions: correlated with time period of maximal plasma levels
From the text: In especially preferred embodiments of each of the formulations of the invention, the active compound is aplindore. Aplindore and pharmaceutically acceptable salts thereof are particularly well-suited to treating various disorders of the central nervous system and more particularly to those central nervous disorders relating to the dopaminergic system. Because aplindore (or any drug) requires a sufficient exposure level to achieve its desired effects, the drug must be dosed in a manner sufficient to achieve the particular blood plasma level over a period of time deemed sufficient to meet the clinical objective sought. […] Simply reducing the dose would not always be satisfactory since, while the side effects might lessen or disappear, the overall drug exposure levels might not be satisfactory to treat the particular condition.

Water solubility = type: physicochemical
Description: The tablet shapes and total tablet weights were kept same for all four different strengths and for the two different release rate tablets. […] In the formulations of aplindore fumarate 5.0 mg, 2.0 mg, 0.5 mg and 0.05 mg medium and slow release formulations, Lactose Fast Flo has been chosen as the water-soluble compensating excipient. […] It has been used in the 10.0 mg medium release formulation.

Row | Compound | side effects [1] | water solubility (Water solubility)
1 | O=C1Cc2c(ccc3c2O[C@@H](CNCc2ccccc2)CO3)N1 [aplindore, S-2-[(Benzylamino)-methyl]-2,3,8,9-tetrahydro-7H-1,4-dioxino[2,3-e]indol-8-one] | side effects including nausea and vomiting | 
2 | O=C(O)/C=C/C(=O)O.O=C1Cc2c(ccc3c2O[C@@H](CNCc2ccccc2)CO3)N1 [aplindore fumarate] |  | highly water-soluble

Reference: patent US11179369B2, “Sustained release pharmaceutical compositions” (Wyeth, LLC, priority 2003, dated 2021)
